From patent publication US20240109912A1, “TRICYCLIC PYRIMIDINES AS CYCLIN-DEPENDENT KINASE 7 (CDK7) INHIBITORS” (JANSSEN PHARMACEUTICA NV, priority 2020, published 2024)
Where “and” joins values, the source holds several entries; their conditions need not be identical. Equal values may be shown once. Read-outs that look alike come from different tables or passages of the source.

Experiments:
[1] = molecular target: CDK7/cyclinH/MAT1 trimeric complex (Homo sapiens (Human), UniProt P50613); experiment: In vitro CDK7 assay, potency of irreversible covalent inhibitors (kinact/KI)
CDK7/cyclinH/MAT1 trimeric complex, sequence (P50613 whole entry): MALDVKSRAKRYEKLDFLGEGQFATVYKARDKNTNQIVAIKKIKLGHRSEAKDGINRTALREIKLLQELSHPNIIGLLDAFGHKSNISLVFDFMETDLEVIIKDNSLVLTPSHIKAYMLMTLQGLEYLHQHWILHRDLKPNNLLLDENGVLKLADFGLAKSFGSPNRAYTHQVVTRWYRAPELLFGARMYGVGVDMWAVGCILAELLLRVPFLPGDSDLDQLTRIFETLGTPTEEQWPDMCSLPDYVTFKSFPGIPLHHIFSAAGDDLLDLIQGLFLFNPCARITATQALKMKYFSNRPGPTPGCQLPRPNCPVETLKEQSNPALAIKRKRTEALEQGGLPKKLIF
CDK7/cyclinH/MAT1 trimeric complex, sequence (P51946 whole entry partner): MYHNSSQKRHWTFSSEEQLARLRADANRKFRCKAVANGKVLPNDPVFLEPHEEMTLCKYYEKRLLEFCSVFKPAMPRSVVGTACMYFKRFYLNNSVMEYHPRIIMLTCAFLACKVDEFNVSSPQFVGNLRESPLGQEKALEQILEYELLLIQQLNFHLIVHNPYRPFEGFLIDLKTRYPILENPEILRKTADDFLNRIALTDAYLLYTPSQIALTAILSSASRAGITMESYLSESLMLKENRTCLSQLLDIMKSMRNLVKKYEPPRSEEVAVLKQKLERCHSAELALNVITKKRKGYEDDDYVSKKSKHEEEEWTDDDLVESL
CDK7/cyclinH/MAT1 trimeric complex, sequence (P51948 whole entry partner): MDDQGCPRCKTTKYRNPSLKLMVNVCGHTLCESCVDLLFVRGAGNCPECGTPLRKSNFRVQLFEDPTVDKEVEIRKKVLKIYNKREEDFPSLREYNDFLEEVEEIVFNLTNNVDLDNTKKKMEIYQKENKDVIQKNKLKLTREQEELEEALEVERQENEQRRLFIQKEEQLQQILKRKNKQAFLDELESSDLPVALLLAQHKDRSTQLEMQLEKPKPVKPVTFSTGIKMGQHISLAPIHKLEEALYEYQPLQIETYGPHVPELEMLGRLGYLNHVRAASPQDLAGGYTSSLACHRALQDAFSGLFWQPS

[2] = system: RNA polymerase II Serine 5 phosphorylation in A549 cells overexpressing CDK7 mutant (C312S); experiment: Imaging-based cellular RNA PolII Ser5 phosphorylation assay in A549 cells overexpressing CDK7-mutant (C312S); assay type: cell-based, human; conditions: for IC50: Homo sapiens, A549, A549 cells overexpressing CDK7 mutant (C312S), read-out: CDK7_ A549 mutant hCDK7(pIC50) (converted); for CDK7_ A549 mutant hCDK7(pIC50): A549 cells overexpressing CDK7 mutant (C312S)
Procedure, shortened: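 A stably transduced A549 pool overexpressing CDK7 C312S, a mutant that blocks covalent binding at Cys312, while retaining endogenous wild-type CDK7 was used. Ser5 phosphorylation was measured by imaging, and IC50 values were derived.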

[3] = system: RNA polymerase II Serine 5 phosphorylation (CDK7) in A549 cells
[4] = CDK7 (20 nM enz.) (KI, μM), 20 nM enz.
[5] = read-out: CDK7 (20 nM enz.) (kinact, s^−1), 20 nM enz.
[6] = read-out: CDK7 (20 nM enz.) (kinact/ KI, M^−1*s^−1), 20 nM enz.
[7] = read-out: CDK7 (kinact, s^−1), Table B
[8] = read-out: CDK7 (kinact/KI, M^−1*s^−1), Table B
[9] = read-out: CDK7 (20 nM enz.) (kobs/[I], M^−1*s^−1), 20 nM enz.

Row | SMILES | Ki [1, 4] | kinact [1, 5] [s⁻¹] | kinact/KI [1, 6] [M⁻¹ s⁻¹] | IC50 [2] [nM] | IC50 [3] | melting point [°C] | Ki ([1]; CDK7 (KI(μM)), Table B) | kinact [1, 7] [s⁻¹] | kinact/KI [1, 8] [M⁻¹ s⁻¹] | kinact/KI [1, 9] [M⁻¹ s⁻¹] | CDK7 (kinact, s^−1) ([1]; Table B) [s⁻¹] | CDK7 (kinact/KI, M^−1*s^−1) ([1]; Table B) [M⁻¹ s⁻¹] | CDK7 (20 nM enz.) (kinact/ KI, M^−1*s^−1) ([1]; 20 nM enz.) | CDK7 (20 nM enz.) (kinact, s^−1) ([1]; 20 nM enz.) | CDK7_ A549 mutant hCDK7(pIC50) [2]
1 | C=CC(=O)N1CC(C2CCN(c3ccc4c(c3)Nc3ncnc(N5CCOCC5)c3CO4)CC2)C1 [compound 7] |  |  |  | > 10000 | 6760 nM | 234 | 1.79 µM | 0.000178 | 99.5 |  |  |  |  |  | 
2 | C=CC(=O)N1CCC(N2CC(c3cc4c(c(C(F)(F)F)c3)OCc3c(ncnc3N3CCOCC3)N4)C2)CC1 [compound 45] | 0.219 µM | 4.44e-05 | 203 | > 10000 | 427 nM | 158 |  |  |  |  |  |  |  |  | 
3 | C=CC(=O)N1CC(N2CCC(c3cc4c(c(C)n3)OCc3c(ncnc3N3CCS(=O)(=O)CC3)N4)CC2)C1 [compound 58] | 0.0451 µM | 5.57e-05 | 1240 | > 10000 | 288 nM | 257 |  |  |  |  |  |  |  |  | 
4 | C=CC(=O)N1CC(N2C3CCC2CC(c2ccc4c(c2)Nc2ncnc(N5CCOCC5)c2CO4)C3)C1 (stereo not shown) [compound 40] | 0.16 µM | 5.56e-05 |  | > 10000 | 437 nM | 212 |  |  |  |  |  |  | 347 M⁻¹ s⁻¹ |  | 
5 | C=CC(=O)N1CC(N2CCC(c3cc(F)c4c(c3)Nc3ncnc(-c5cnn(C)c5)c3[C@@H](C)O4)CC2)C1 (single isomer, unassigned) [compound 52] | 0.0825 µM | 5.9e-05 | 714 | > 10000 | 123 nM | 245 |  |  |  |  |  |  |  |  | 
6 | C=CC(=O)N1CC(N2CCC(c3cc(F)c4c(c3)Nc3ncnc(-c5cnn(C)c5)c3[C@H](C)O4)CC2)C1 (single isomer, unassigned) [compound 53] |  |  |  | > 10000 | > 10000 nM | 260 |  |  |  | 3.8 |  |  |  |  | 
7 | C=CC(=O)N1CCC(N2CC(c3cc(C)c4c(c3)Nc3ncnc(N5CCOCC5)c3CO4)C2)CC1 [compound 14] | 0.183 µM | 3.46e-05 | 189 | > 10000 | 468 nM | 191 |  |  |  |  |  |  |  |  | 
8 | C=CC(=O)N1CC(N2CCC(c3cc4c(cn3)OCc3c(ncnc3N3CCOCC3)N4)CC2)C1 [compound 48] | 0.232 µM | 5.9e-05 | 254 | > 10000 | 776 nM | 220 |  |  |  |  |  |  |  |  | 
9 | C=CC(=O)N1CCC(N2CCC(c3ccc4c(c3)Nc3ncnc(N5CCOCC5)c3CO4)CC2)CC1 [compound 2] | 0.754 µM | 6.34e-05 | 98.7 | > 10000 | 331 nM and 324 nM | 211 | 0.365 µM | 0.000198 | 543 |  |  |  |  |  | 
10 | C=CC(=O)N1CC(N2CCC(c3ccc4c(c3)Nc3ncnc(N5CCOCC5)c3CO4)CC2C)C1 (stereo not shown) [compound 34] |  |  |  | > 10000 | 1000 nM | 213 | 0.258 µM | 0.000186 | 721 |  |  |  |  |  | 
11 | C=CC(=O)N1CC(N2CCC(c3cc(F)c4c(c3)Nc3ncnc(N5CCOCC5)c3[C@H](C)O4)CC2)C1 (single isomer, unassigned) [compound 49] | 0.118 µM | 5.65e-05 | 478 | > 10000 | 178 nM | 180 |  |  |  |  |  |  |  |  | 
12 | C=CC(=O)N1CC(N2CCC(c3ccc4c(c3)Nc3ncnc(C5=CCOCC5)c3CO4)CC2)C1 [compound 39] | 0.61 µM | 5.09e-05 | 83.4 | > 10000 | 2240 nM | 243 |  |  |  |  |  |  |  |  | 
13 | C=CC(=O)N1CC(N2CCC(c3cc(C)c4c(c3)Nc3ncnc(N5CCS(=O)(=O)CC5)c3[C@H](C)O4)CC2)C1 [compound 32] | 0.0249 µM | 4.14e-05 | 1660 | > 10000 | ~12.6 nM | > 300 |  |  |  | 1280 |  |  |  |  | 
14 | C=CC(=O)N1CC(N2CC[C@@H](c3ccc4c(c3)Nc3ncnc(N5CCOCC5)c3CO4)[C@@H](C)C2)C1 [compound 36] |  |  |  | > 10000 | 741 nM and 479 nM | 232 | 0.0803 µM and 0.233 µM | 8.19e-05 | 1020 |  | 0.0001256 | 539.8 |  |  | 
15 | C=CC(=O)N1CC(N2C3CCC2CC(c2ccc4c(c2)Nc2ncnc(N5CCOCC5)c2CO4)C3)C1 (stereo not shown) [compound 41] | 0.991 µM and 0.898 µM |  |  |  | 1200 nM and 1320 nM | 208 |  |  |  |  |  |  | 56 M⁻¹ s⁻¹ and 58.5 M⁻¹ s⁻¹ | 5.55e-05 s⁻¹ and 5.25e-05 s⁻¹ | <5

Second part, led by results:

Row | Ki [1, 4] | kinact [1, 5] [s⁻¹] | kinact/KI [1, 6] [M⁻¹ s⁻¹] | IC50 [2] [nM] | IC50 [3] | melting point [°C] | Ki ([1]; CDK7 (KI(μM)), Table B) | kinact [1, 7] [s⁻¹] | kinact/KI [1, 8] [M⁻¹ s⁻¹] | kinact/KI [1, 9] [M⁻¹ s⁻¹] | CDK7 (kinact, s^−1) ([1]; Table B) [s⁻¹] | CDK7 (kinact/KI, M^−1*s^−1) ([1]; Table B) [M⁻¹ s⁻¹] | SMILES | CDK7 (20 nM enz.) (kinact/ KI, M^−1*s^−1) ([1]; 20 nM enz.) | CDK7 (20 nM enz.) (kinact, s^−1) ([1]; 20 nM enz.) | CDK7_ A549 mutant hCDK7(pIC50) [2]
16 | 0.277 µM | 6.26e-05 | 226 | > 10000 | 427 nM | > 300 |  |  |  |  |  |  | C=CC(=O)N1CC[C@@H](N2CC(c3cc4c(c(C5CC5)c3)OCc3c(ncnc3N3CCS(=O)(=O)CC3)N4)C2)C1 (single isomer, unassigned) [compound 93] |  |  | 
17 | 0.498 µM | 8.53e-05 | 171 | > 10000 | 537 nM | 167 |  |  |  |  |  |  | C=CC(=O)N1CC[C@H](N2CC(c3cc4c(c(C5CC5)c3)OCc3c(ncnc3N3CCS(=O)(=O)CC3)N4)C2)C1 (single isomer, unassigned) [compound 94] |  |  | 
18 | 0.0715 µM | 5.06e-05 | 708 | > 10000 | 151 nM | 259 |  |  |  |  |  |  | C=CC(=O)N1CCC(N2CCC(c3cc4c(c(C)n3)OCc3c(ncnc3N3CCS(=O)(=O)CC3)N4)CC2)CC1 [compound 59] |  |  | 
19 | 0.117 µM | 6.46e-05 | 551 | > 10000 | 525 nM | 247 |  |  |  |  |  |  | C=CC(=O)N1CC(N2CCC(c3cc4c(c(C)n3)O[C@@H](C)c3c(ncnc3N3CCS(=O)(=O)CC3)N4)CC2)C1 (single isomer, unassigned) [compound 86] |  |  | 
20 | 0.172 µM | 3.83e-05 | 223 | > 10000 | 4070 nM | > 300 |  |  |  |  |  |  | C=CC(=O)N1CCC(N2CC(c3cc4c(c(C)n3)OCc3c(ncnc3N3CCS(=O)(=O)CC3)N4)C2)C1 (stereo not shown) [compound 77] |  |  | 
21 | 0.0874 µM | 5.36e-05 | 613 | > 10000 | 257 nM | 240 |  |  |  |  |  |  | CC#CC(=O)N1CCC(N2CCN(c3cc(C)c4c(c3)Nc3ncnc(N5CCS(=O)(=O)CC5)c3CO4)CC2)CC1 [compound 136] |  |  | 
22 | 0.128 µM | 5.45e-05 | 425 | > 10000 | 955 nM | 203 |  |  |  |  |  |  | C=CC(=O)N1CCC(N2CCN(c3cc(C)c4c(c3)Nc3ncnc(N5CCS(=O)(=O)CC5)c3CO4)CC2)CC1 [compound 89] |  |  | 
23 | 0.0708 µM | 2.35e-05 | 332 | > 10000 | ~955 nM | 193 |  |  |  |  |  |  | C=CC(=O)N1CC[C@H](N2CC(c3cc4c(c(C5CC5)c3)O[C@H](C)c3c(ncnc3N3CCS(=O)(=O)CC3)N4)C2)C1 (single isomer, unassigned) [compound 95] |  |  | 
24 | 0.0068 µM | 2.76e-05 | 4030 | > 10000 | 234 nM | 220 |  |  |  |  |  |  | C=CC(=O)N1CCC(N2CC(c3cc4c(c(C5CC5)c3)O[C@@H](C)c3c(ncnc3N3CCS(=O)(=O)CC3)N4)C2)C1 (mixture of isomers) [compound 97] |  |  | 
25 | 3.2 µM | 7.12e-05 | 22.2 | > 10000 | 1350 nM | 256 |  |  |  |  |  |  | C=CC(=O)N1CC(N2CCN(c3cc4c(cn3)OCc3c(ncnc3N3CCOCC3)N4)CC2)C1 [compound 71] |  |  | 
26 | 0.173 µM | 2.65e-05 | 153 | 8510 | 91.2 nM | 180 |  |  |  |  |  |  | CC#CC(=O)N1CCC(N2CC(c3cc(C)c4c(c3)Nc3ncnc(N5CCS(=O)(=O)CC5)c3CO4)C2)CC1 [compound 133] |  |  | 
27 | 0.0324 µM | 2.16e-05 | 665 | > 10000 | 525 nM | 233 |  |  |  |  |  |  | C=CC(=O)N1CC[C@@H](N2CC(c3cc4c(c(C5CC5)c3)O[C@H](C)c3c(ncnc3N3CCS(=O)(=O)CC3)N4)C2)C1 (single isomer, unassigned) [compound 96] |  |  | 
28 | 0.174 µM | 3.22e-05 | 186 | > 10000 | 1700 nM | 190 |  |  |  |  |  |  | C=CC(=O)N1CCC(N2CC(c3cc4c(c(C)n3)OCc3c(ncnc3N3CCS(=O)(=O)CC3)N4)C2)CC1 [compound 63] |  |  | 
29 | 0.0288 µM and 0.0678 µM | 4.67e-05 | 1620 | ~10000 | 51.3 nM and 28.2 nM | 251 |  |  |  |  |  |  | C=CC(=O)N1CC[C@@H](N2CCC(c3cc(C)c4c(c3)Nc3ncnc(N5CCS(=O)(=O)CC5)c3CO4)CC2)C1 (single isomer, unassigned) [compound 114] | 1318 M⁻¹ s⁻¹ | 8.94e-05 s⁻¹ | <5
